Reference: patent US12617752B2, “Rapidly metabolized lipid compound” (Beijing Jitai Life Sciences Ltd, priority 2023, dated 2026)

Experiments:
C57BL/6 mice = experiment: In vivo delivery of luciferase mRNA lipid nanoparticles in mice (bioluminescence imaging); conditions: intravenous, single dose 0.5 mg/kg luciferase mRNA
Method in brief: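 Female C57BL/6 mice, 6-8 weeks old, received luciferase mRNA lipid nanoparticles as a single intravenous dose of 0.5 mg/kg mRNA. At 6 h, D-luciferin given intraperitoneally; 10 min later, mice were imaged under isoflurane anaesthesia. Values are group mean fluorescence intensity and total photon count.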

[1] = Encapsulation efficiency of lipid nanoparticles (Quant-it RiboGreen RNA Assay); type: physicochemical; conditions: lipid nanoparticles with luciferase mRNA
Method in brief: (§1)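 LNPs of ionizable lipid/cholesterol/phospholipid/PEG-lipid (50/38.5/10/1.5 mol%, N/P 6) were formed by microfluidic mixing with mRNA in pH 4.5 acetate, then buffer-exchanged by ultrafiltration. Size and PDI were measured by DLS. Encapsulation came from RiboGreen fluorescence (485/528 nm) in TE pH 7.5, with and without 0.5% Triton at 37 °C for 30 min.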

[2] = Particle size and PDI of lipid nanoparticles by dynamic light scattering; type: physicochemical; conditions: lipid nanoparticles with luciferase mRNA; ionizable lipid/cholesterol/DSPC/DMG-PEG2000 50/38.5/10/1.5 mol%
Method in brief: as §1

| Compound | Total photon count in vivo at 6 hours after administration (Total Flux) (C57BL/6 mice) | Encapsulation efficiency (%) [1] [%] | Particle size (nm) [2] [nm] | Particle-size distribution (PDI) [2] |
| --- | --- | --- | --- | --- |
| CCCCCCCC(CCCCCCC)COC(=O)CCCCCCCN(CCO)CCCCCC(C)(C)COC(=O)CC(CCCCCCC)CCCCCCC [65b] | 1.25E+11 | 97.75 | 80.60 | 0.16 |
| CCCCCCCCCCOC(=O)CCCCC(C)(C)CCN(CCCO)CCCCCCCC(=O)OC(CCCCCCCCC)CCCCCCCCC [66a] | 9.31E+10 | 92.88 | 105.77 | 0.11 |
| CCCCCCCCCC(CCCCCCCCC)OC(=O)CCCCCCCN(CCO)CCCCCC(C)(C)COC(=O)CCCC(CCCCCC)CCCCCC [66b] | 4.35E+10 | 97.18 | 81.83 | 0.17 |
| CCCCCCCCCCOC(=O)CCCCC(C)(C)CCN(CCCCO)CCCCCCCC(=O)OC(CCCCCCCCC)CCCCCCCCC [67a] | 6.07E+10 | 91.57 | 111.33 | 0.06 |
| CCCCCCCCCC(=O)OCC(C)(C)CCCCCN(CCO)CCCCCCC(=O)OCC(CCCCCCCC)CCCCCCCC [67b] | 1.71E+11 | 96.30 | 88.28 | 0.23 |
| CCCCCCCCCCCOC(=O)CCCCC(C)(C)CCN(CCCCO)CCCCCCCC(=O)OC(CCCCCCCCCC)CCCCCCCCCC [68a] | 7.55E+10 | 94.47 | 103.93 | 0.04 |
| CCCCCCCCCC(=O)OCC(C)(C)CCCCCN(CCO)CCCCCCC(=O)OCCC(CCCCCCC)CCCCCCC [68b] | 2.88E+11 | 96.31 | 88.33 | 0.20 |
| CCCCCCCCCOC(=O)CCCCC(C)(C)CCN(CCO)CCCCCC(=O)OCC(CCCCCCCCC)CCCCCCCCC [69a] | 7.41E+10 | 96.65 | 107.20 | 0.34 |
| CCCCCCCCCC(=O)OCC(C)(C)CCCCCN(CCCCO)CCCCCCC(=O)OCC(CCCCCCCC)CCCCCCCC [69b] | 1.52E+11 | 93.85 | 99.05 | 0.13 |
| CCCCCCCCCOC(=O)CCCCC(C)(C)CCN(CCO)CCCCCCC(=O)OCC(CCCCCCCC)CCCCCCCC [70a] | 9.33E+10 | 96.69 | 86.08 | 0.15 |
| CCCCCCCCCC(=O)OCC(C)(C)CCCCCN(CCCCO)CCCCCCC(=O)OCCC(CCCCCCC)CCCCCCC [70b] | 1.15E+11 | 96.91 | 96.20 | 0.09 |
| CCCCCCCCCC(=O)OCCCC(C)(C)CCCN(CCO)CCCCCCCC(=O)OCCC(CCCCCC)CCCCCC [71b] | 1.70E+11 | 95.95 | 95.59 | 0.17 |
| CCCCCCCCCCC(=O)OCCCCC(C)(C)CCN(CCO)CCCCCCCC(=O)OCCC(CCCCCCC)CCCCCCC [72b] | 7.01E+10 | 95.13 | 92.45 | 0.12 |
| CCCCCCCCCC(=O)OCCCC(C)(C)CCCN(CCO)CCCCCCC(=O)OCCC(CCCCCCC)CCCCCCC [74b] | 7.13E+10 | 94.92 | 93.18 | 0.17 |
| CCCCCCCCCC(=O)OCCCC(C)(C)CCCN(CCO)CCCCCCC(=O)OCCCC(CCCCCC)CCCCCC [75b] | 7.05E+10 | 95.99 | 91.60 | 0.19 |
| CCCCCCCCCC(=O)OCC(C)(C)CCCCCN(CCCO)CCCCCCC(=O)OCC(CCCCCCCC)CCCCCCCC [76b] | 9.41E+10 | 94.97 | 91.27 | 0.18 |
| CCCCCCCCCC(=O)OCC(C)(C)CCCCCN(CCCO)CCCCCCC(=O)OCCC(CCCCCCC)CCCCCCC [77b] | 9.72E+10 | 95.88 | 93.16 | 0.16 |
| CCCCCCCCCCC(=O)OCC(C)(C)CCCCCN(CCCCO)CCCCCCC(=O)OCC(CCCCCCCCC)CCCCCCCCC [78b] | 5.51E+10 | 92.27 | 98.88 | 0.12 |
| CCCCCCCCCCC(=O)OCC(C)(C)CCCCCN(CCCO)CCCCCCCCC(=O)OCC(CCCCCCC)CCCCCCC [79b] | 1.62E+11 | 92.85 | 99.27 | 0.15 |
| CCCCCCCCCCC(=O)OCCCC(C)(C)CCCN(CCO)CCCCCCCC(=O)OCCC(CCCCCCC)CCCCCCC [80b] | 8.94E+10 | 93.59 | 93.39 | 0.18 |
| CCCCCCCCCCC(=O)OCCCC(C)(C)CCCN(CCCO)CCCCCCCC(=O)OCCC(CCCCCCC)CCCCCCC [81b] | 5.20E+10 | 92.87 | 107.43 | 0.19 |
